Where a name gives a salt, the structure may show the parent alone.
Target: rat SAPK (isoform b) (Rattus norvegicus, UniProt P49187)
Assay: SAPK FlashPlate Assay (c-Jun phosphorylation)
Type: biochemical
Conditions: purified rat SAPK activated by MEKK-1/MKK4, GST-c-Jun substrate, 33P-ATP, 30 minutes at 37° C.
Description: "IC50 " refers to the concentration of a particular 4-aryloxindole or 4-heteroaryloxidole required to inhibit 50% of the SAPK protein kinase catalytic activity. IC50 can be measured, inter alia, using the assay described herein in Example 66.
Human JNK is highly homologous to rat SAPK. To measure the inhibitory activity of test compounds, the compounds were tested in the rat SAPK assay.
For the SAPK assay, purified GST-c-Jun (a chimeric protein containing c-Jun, a natural substrate of JNK) was coated on 96 well FlashPlates (New England Nuclear, Boston, Mass.). Purified rat SAPK (isoform b, Kyriakis et al. supra) was preincubated with preparations containing MEKK-1 and MKK4 for 30 minutes at 37° C. in assay buffer containing 25 mM HEPES, pH 7.5, 150 mM NaCl, 20 mM MgCl2, 2 mM DTT, 0.001% Tween 20, 1 mM ATP freshly added. In the preincubation step, MEKK-1 phosphorylates and activates MKK4, which in turn phosphorylates and activates SAPK. The activated SAPK was then added to the c-Jun coated FlashPlates along with ^33 P-ATP ([…] per reaction) and test compounds. The plates were incubated for 30 minutes at 37° C., then washed with PBS, 0.01% Tween 20, and counted in the Topcount scintillation counter (Packard Instrument Co., Downers Grove, Ill.). Dilutions of compounds were tested in duplicate in each assay. The percent inhibition of c-Jun phosphorylation (a measure of inhibition of SAPK activity) was determined by the following formula: [formula]
where "test compound" refers to the average counts per minute of the test duplicates, "nonspecific" refers to the average counts per minute when no SAPK was added, and "total" refers to the average counts per minute when no compound was added.

Chain of rat SAPK (isoform b) (P49187 whole entry, canonical isoform): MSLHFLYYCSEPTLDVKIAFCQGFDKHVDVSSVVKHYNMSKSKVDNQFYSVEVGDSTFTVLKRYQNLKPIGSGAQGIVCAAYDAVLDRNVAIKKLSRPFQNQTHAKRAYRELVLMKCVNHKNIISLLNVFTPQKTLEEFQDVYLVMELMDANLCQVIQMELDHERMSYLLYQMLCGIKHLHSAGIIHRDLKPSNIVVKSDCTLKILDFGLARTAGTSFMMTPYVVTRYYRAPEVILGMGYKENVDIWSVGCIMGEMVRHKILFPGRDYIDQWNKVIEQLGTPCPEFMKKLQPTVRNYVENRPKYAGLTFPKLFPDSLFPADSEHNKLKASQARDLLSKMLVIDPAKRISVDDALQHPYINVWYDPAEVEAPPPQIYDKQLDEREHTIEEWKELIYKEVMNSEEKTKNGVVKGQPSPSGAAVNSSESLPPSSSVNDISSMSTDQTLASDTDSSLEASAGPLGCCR

Row | Compound | IC50 [µM]
1 | COc1cc[nH]c1/C=C1\C(=O)Nc2ccc(NC(=O)Cc3cccs3)c(-c3ccccc3)c21 [LL, (Z)-N-[2,3-Dihydro-3-[(3-methoxy-1H-pyrrol-2-yl)methylene]-2-oxo-4-phenyl-1H-indol-5-yl]-2-thiopheneacetamide] | < 0.15
2 | COc1cc[nH]c1/C=C1\C(=O)Nc2cccc(-c3ccccc3)c21 [GG, (Z)-1,3-Dihydro-4-phenyl-3-[(3-methoxy-1H-pyrrol-2-yl)methylene]-2H-indol-2-one] | < 0.15
3 | COc1cc[nH]c1/C=C1\C(=O)Nc2ccc(N)c(-c3ccc(O)cc3)c21 [NN, (Z)-5-Amino-1,3-dihydro-4-(4-hydroxyphenyl)-3-[(3-methoxy-1H-pyrrol-2-yl)methylene]-2H-indol-2-one] | < 0.15
4 | COc1cc[nH]c1/C=C1\C(=O)Nc2ccc(NC(=O)Cc3cccs3)c(-c3ccc(O)cc3)c21 [OO, (Z)-N-[2,3-Dihydro-4-(4-hydroxyphenyl)-3-[(3-methoxy-1H-pyrrol-2-yl)methylene]-2-oxo-1H-indol-5-yl]-2-thiopheneacetamide] | < 0.15
5 | COc1cc[nH]c1/C=C1\C(=O)Nc2ccc(NC(=O)Cc3cccs3)c(-c3ccc4[nH]ccc4c3)c21 [QQ, (Z)-N-[2,3-dihydro-4-(5-indolyl)-3-[(3-methoxy-1H-pyrrol-2-yl)methylene]-2-oxo-1H-indol-5-yl]-2-thiopheneacetamide] | < 0.15
6 | COc1cc[nH]c1/C=C1\C(=O)Nc2cccc(-c3cccc(N)c3)c21 [EE, (Z)-4-(3-Aminophenyl)-1,3-dihydro-3-[(3-methoxy-1H-pyrrol-2-yl)methylene]-2H-indol-2-one] | < 0.15
7 | COc1cc[nH]c1/C=C1\C(=O)Nc2ccc(N)c(-c3ccccc3)c21 [PP, (Z)-5-Amino-1,3-dihydro-3-[(3-methoxy-1H-pyrrol-2-yl)methylene]-4-phenyl-2H-indol-2-one] | < 0.15
8 | COC(=O)c1ccc(-c2c([N+](=O)[O-])ccc3c2/C(=C/c2[nH]ccc2OC)C(=O)N3)cc1 [RR, (Z)-4-[2,3-Dihydro-3-[(3-methoxy-1H-pyrrol-2-yl)methylene]-5-nitro-2oxo-1H-indol-4-yl]-benzoic acid methyl ester] | < 0.15
9 | Nc1cccc(-c2cccc3c2/C(=C/c2ccc[nH]2)C(=O)N3)c1 [Compound C, (Z)-4-(3-Aminophenyl)-1,3-dihydro-3-[(1H-pyrrol-2-yl)methylene]-2H-indol-2-one] | < 0.15
10 | COc1cc[nH]c1/C=C1\C(=O)Nc2ccc([N+](=O)[O-])c(-c3ccccc3)c21 [KK, (Z)-1,3-Dihydro-3-[(3-methoxy-1H-pyrrol-2-yl)methylene]-5-nitro-4-phenyl-2H-indol-2-one] | < 0.15
11 | COc1cc[nH]c1/C=C1\C(=O)Nc2cccc(-c3ccc4[nH]ccc4c3)c21 [MM, (Z)-1,3-Dihydro-4-(5-indolyl)-3-[(3-methoxy-1H-pyrrol-2-yl)methylene]-2H-indol-2-one] | < 0.15
12 | COc1cc[nH]c1/C=C1\C(=O)Nc2ccc([N+](=O)[O-])c(-c3ccc(O)cc3)c21 [JJ, (Z)-1,3-Dihydro-4-(4-hydroxyphenyl)-3-[(3-methoxy-1H-pyrrol-2-yl)methylene]-5-nitro-2H-indol-2-one] | < 0.15

The next lines start with the values.

Row | IC50 [µM] | Compound
13 | < 0.15 | COC(=O)c1ccc(-c2c(NC(=O)Cc3cccs3)ccc3c2/C(=C/c2[nH]ccc2OC)C(=O)N3)cc1 [WW, (Z)-4-[2,3-Dihydro-3-[(3-methoxy-1H-pyrrol-2-yl)methylene]-2-oxo-5-[(2-thienylacetyl)amino]-1H-indol-4-yl]-benzoic Acid Methyl Ester]
14 | < 0.15 | COc1cc[nH]c1/C=C1\C(=O)Nc2cccc(-c3cccc4[nH]ccc34)c21 [TT, (Z)-1,3-Dihydro-4-(4-indolyl)-3-[(3-methoxy-1H-pyrrol-2-yl)methylene]-2H-indol-2-one]
15 | < 0.15 | COc1cc[nH]c1/C=C1\C(=O)Nc2cccc(-c3ccc4cc[nH]c4c3)c21 [UU, (Z)-1,3-Dihydro-4-(6-indolyl)-3-[(3-methoxy-1H-pyrrol-2-yl)methylone]-2H-indol-2-one]
16 | < 0.15 | COc1cc[nH]c1/C=C1\C(=O)Nc2ccc(NC(=O)Cc3cccs3)c(-c3ccc4cc[nH]c4c3)c21 [VV, (Z)-N-[2,3-Dihydro-4-(6-indolyl)-3-[(3-methoxy-1H-pyrrol-2-yl)methylene]-2-oxo-1H-indol-5-yl]-2-thiopheneacetamide]
17 | < 0.15 | COc1cc[nH]c1/C=C1\C(=O)Nc2ccc(NC(=O)Cc3cccs3)c(-c3ccc(C(=O)O)cc3)c21 [XX, (Z)-4-[2,3-Dihydro-3-[(3-methoxy-1H-pyrrol-2-yl)methylene]-2-oxo-5-[(2-thienylacetyl)amino]-1H-indol-4-yl]-benzoic acid]
18 | < 0.15 | COC(=O)c1ccc(-c2c(N)ccc3c2/C(=C/c2[nH]ccc2OC)C(=O)N3)cc1 [SS, (Z)-4-[5-Amino-2,3-dihydro-3-[(3-methoxy-1H-pyrrol-2-yl)methylene]-2-oxo-1H-indol-4-yl]-benzoic acid methyl ester]

Test system: IL-6
Assay: U937 Cell-Based Assay, IL-6 ELISA after LPS stimulation
Conditions: Homo sapiens, U-937, PMA-differentiated U937 cells, 1 hour preincubation, 24 hours, supernatant ELISA, read-out: IC50 (pM) in U837 Cells IL6
Description: (§1) U937 Cell-Based Assay The U937 cells, a human monocyte/macrophage cell line, was obtained from the ATTC and grown in the recommended medium. These cells when stimulated with lipopolysaccharide (LPS) release TNF, another inflammatory mediator implicated in the JNK pathway ([…] et al., supra) and IL-6. In this assay the ability of a test compound to block TNF expression is evaluated. The U937 cells were suspension cells which when stimulated with phorbol myristate acetate (PMA) (Sigma, St. Louis, Mo.) became adherent. After PMA stimulation the cells were washed in cell culture medium and plated at 1×10^5 cells/well in 96 well plates. The following day the test compounds and dexamethasone control (Sigma, St. Louis, Mo.) were added to the cells for 1 hour of preincubation. Then the cells were stimulated with LPS (Sigma, St. Louis, Mo.). After an additional 24 hours of incubation the supernatants were removed and assayed for TNF-α and IL-6 by ELISA. The IL-6 ELISA was run as described previously for the MG63 assay. […] The intensity of the color (measured at 450 nm) is proportional to the amount of TNF-α or IL-6 produced by the U937 cells upon exposure to LPS and the test compounds. […] IC50 values for each test compound were determined from the linear regression of a plot of the logarithm of the concentration of compound versus amount of TNF-α or IL-6 secreted. […]

Row | IC50 [pM] | Compound
19 | 7.8e+06 | COC(=O)c1ccc(-c2c(NC(=O)Cc3cccs3)ccc3c2/C(=C/c2[nH]ccc2OC)C(=O)N3)cc1 [WW, (Z)-4-[2,3-Dihydro-3-[(3-methoxy-1H-pyrrol-2-yl)methylene]-2-oxo-5-[(2-thienylacetyl)amino]-1H-indol-4-yl]-benzoic Acid Methyl Ester]
20 | 6.33e+06 | Nc1cccc(-c2cccc3c2/C(=C/c2ccc[nH]2)C(=O)N3)c1 [D, (Z)-4-(3-Aminophenyl)-1,3-dihydro-3-[(1H-pyrrol-2-yl)methylene]-2H-indol-2-one hydrochloride salt]

Test system: TNF-α
Assay: U937 Cell-Based Assay, TNF-α ELISA after LPS stimulation
Conditions: Homo sapiens, U-937, read-out: IC50 in U837 Cells TNF, PMA-differentiated U937 cells, 1 hour preincubation, 24 hours, supernatant ELISA
Description: as §1

Row | IC50 [pM] | Compound
21 | 1.35e+06 | COC(=O)c1ccc(-c2c(NC(=O)Cc3cccs3)ccc3c2/C(=C/c2[nH]ccc2OC)C(=O)N3)cc1 [WW, (Z)-4-[2,3-Dihydro-3-[(3-methoxy-1H-pyrrol-2-yl)methylene]-2-oxo-5-[(2-thienylacetyl)amino]-1H-indol-4-yl]-benzoic Acid Methyl Ester]
22 | 1.17e+06 | Nc1cccc(-c2cccc3c2/C(=C/c2ccc[nH]2)C(=O)N3)c1 [D, (Z)-4-(3-Aminophenyl)-1,3-dihydro-3-[(1H-pyrrol-2-yl)methylene]-2H-indol-2-one hydrochloride salt]

Source: patent US6307056A, “4-aryloxindoles” (Hoffman-La Roche Inc., priority 1999, dated 2001)
